Measured values: patent US12714094B2, “Cryoprotectant polymers and methods of making and using thereof” (BOARD OF REGENTS, THE UNIVERSITY OF TEXAS SYSTEM, priority 2019, dated 2026)
Entries after “also recorded” stand apart in the source; their conditions may differ.

Assay: Differential scanning calorimetry of polymer/water and polymer/PBS solutions (ice formation, Tg, phase behavior)
Assay type: physicochemical
Details: 50 wt % aqueous solution
Experimental: Differential Scanning calorimetry (DSC). DSC was used to determine the Tg of pure polymer and aqueous polymer solutions. PMGS is hygroscopic, so PMGS batches were dried in vacuo for at least four hours prior to sample preparation. Polymer solutions were made by mixing dry PMGS with phosphate buffer solution (PBS) and hand-mixing until a homogeneous solution was achieved. DSC samples were prepared by loading TZero pans with at least 5 mg of each solution and sealing them with hermetic lids to prevent evaporation. DSC samples of pure polymer were typically scanned from −20 to 120° C. four times, and the Tg was determined from the last heating cycle. DSC samples of polymer solutions were cooled to −90 and heated to 20° C., and the Tg was determined on the heating cycle.
Differential scanning calorimetry. For PMGS/water mixtures, 6-8 mg of solution was placed in an aluminum DSC pan. The samples were cooled at 1° C./min to −90° C., held at −90° C. for 1 minute, then heated to 20° C. at 10° C./min. For neat PMGS, the polymer was dried overnight under vacuum, then the polymer was removed from the vacuum and 5-10 mg was immediately transferred to an aluminum DSC pan. The sample was heated to 150° C. at 10° C./min, held for 1 min, then cooled to −10° C. at 10° C./min and held for 1 min. […]

## C[S+](C)[O-] [DMSO, dimethyl sulfoxide]
  ice formation (in words): No ice formed; also recorded: enough to arrest ice formation in solution
